Assay [1] concerns the target human GLP-1 receptor (hGLP-1R) (Homo sapiens, UniProt P43220). Kind of assay: cAMP production (HTRF) in CHO cells expressing hGLP-1R. The assay is classed as cell-based. Further details: expressed in transfected cells. Conditions: for % Relative Potency Ratio: % GLP-1R activity relative to GLP-1 / % GlucR activity relative to glucagon. In a few lines:
(§1)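 Read-out: HTRF cAMP (anti-cAMP cryptate donor, cAMP-d2 acceptor in conjugate/lysis buffer), converted to % Delta F and fitted by 4-parameter logistic for EC50. Cell densities were 1×10^5 cells/mL (hGLP-1R) or 2×10^5 cells/mL (hGCGR). Stimulation lasted 30 min at room temperature.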

The target in assay [2] is human glucagon receptor (hGCGR) (Homo sapiens, UniProt P47871). Kind of assay: cAMP production (HTRF) in CHO cells expressing hGCGR. The class given is cell-based. Further details: expressed in transfected cells. The note with it: geometric mean. The essentials:
as §1
(In general: Changes in cAMP serve as a functional read-out for many G protein-coupled receptors.)

The mark [3] stands for this setting: Table 6, peptides modified at position 17, cAMP in CHO hGLP-1R cells, geometric mean, read-out: hGLP-1R EC50.
The mark [4] stands for this setting: Table 6, peptides modified at position 17, cAMP in CHO hGCGR cells, read-out: hGluc-R EC50.

Read-outs that look alike come from different tables or passages of the source. Starred links: 1 amine or outer side, 2 acyl side, 3 side chain; linkers in the order of their positions; H or OH if unused. Non-standard residues stand in square brackets, D forms with d. Residues, ends and D or L forms follow the SMILES beside them. Groups on a side chain read outwards from the residue. *: point of attachment. C18 diacid = O=C(O)CCCCCCCCCCCCCCCCC(=O)*; Heptadecanoyl = CCCCCCCCCCCCCCCCC(=O)*; γGlu = O=C(O)[C@H](CCC(=O)[*:2])N[*:1]; αMeF = C[C@](N)(Cc1ccccc1)C(=O)O; PEG2 = NCCOCCOCCC(=O)O; AEEA = NCCOCCOCC(=O)O; Aib = CC(C)(N)C(=O)O Some results are limits rather than exact numbers.

Sequence of human GLP-1 receptor (hGLP-1R) (P43220 24-463): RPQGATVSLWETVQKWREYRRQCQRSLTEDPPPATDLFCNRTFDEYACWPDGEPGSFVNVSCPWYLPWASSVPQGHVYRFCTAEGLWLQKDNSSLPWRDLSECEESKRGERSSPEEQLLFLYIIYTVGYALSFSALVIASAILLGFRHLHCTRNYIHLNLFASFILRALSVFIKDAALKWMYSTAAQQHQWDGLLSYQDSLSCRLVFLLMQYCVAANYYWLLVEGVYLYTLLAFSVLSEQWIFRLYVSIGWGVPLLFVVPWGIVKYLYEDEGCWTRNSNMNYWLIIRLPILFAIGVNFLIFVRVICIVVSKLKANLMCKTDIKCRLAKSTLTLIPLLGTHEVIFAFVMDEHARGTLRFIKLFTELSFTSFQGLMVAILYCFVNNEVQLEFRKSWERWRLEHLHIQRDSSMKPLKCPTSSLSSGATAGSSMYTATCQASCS
Sequence of human glucagon receptor (hGCGR) (P47871 26-477): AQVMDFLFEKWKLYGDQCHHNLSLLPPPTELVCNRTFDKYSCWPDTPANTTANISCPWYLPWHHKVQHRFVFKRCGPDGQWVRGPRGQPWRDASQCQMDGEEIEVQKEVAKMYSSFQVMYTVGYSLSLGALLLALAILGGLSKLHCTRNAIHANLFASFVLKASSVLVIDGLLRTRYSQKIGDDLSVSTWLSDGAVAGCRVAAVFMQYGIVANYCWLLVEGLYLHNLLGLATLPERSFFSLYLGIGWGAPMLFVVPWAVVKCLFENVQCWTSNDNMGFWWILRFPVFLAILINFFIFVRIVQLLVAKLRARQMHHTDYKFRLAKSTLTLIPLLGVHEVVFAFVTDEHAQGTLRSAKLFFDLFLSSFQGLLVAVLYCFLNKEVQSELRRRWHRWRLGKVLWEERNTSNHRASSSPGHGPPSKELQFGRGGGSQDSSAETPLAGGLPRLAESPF

In the case of `CC(C)C[C@H](NC(=O)[C@H](Cc1c[nH]c2ccccc12)NC(=O)[C@H](CCC(N)=O)NC(=O)[C@@H](NC(=O)[C@H](Cc1ccccc1)NC(=O)[C@H](CC(=O)O)NC(=O)[C@H](CCCNC(=N)N)NC(=O)[C@H](C)NC(=O)[C@H](CCCNC(=N)N)NC(=O)[C@H](CCCCNC(=O)COCCOCCNC(=O)COCCOCCNC(=O)CC[C@H](NC(=O)CCCCCCCCCCCCCCCCC(=O)O)C(=O)O)NC(=O)[C@H](CO)NC(=O)[C@H](CC(=O)O)NC(=O)[C@H](CC(C)C)NC(=O)[C@](C)(Cc1ccccc1)NC(=O)[C@H](CCCCN)NC(=O)[C@H](CO)NC(=O)[C@@H](NC(=O)[C@H](CC(=O)O)NC(=O)[C@H](CO)NC(=O)[C@@H](NC(=O)[C@H](Cc1ccccc1)NC(=O)[C@@H](NC(=O)CNC(=O)[C@H](CCC(N)=O)NC(=O)C(C)(C)NC(=O)[C@@H](N)Cc1c[nH]cn1)[C@@H](C)O)[C@@H](C)O)C(C)C)C(C)C)C(=O)N[C@@H](CC(C)C)C(=O)N[C@@H](CCC(=O)O)C(=O)NC(C)(C)C(=O)NCC(=O)O` [Peptide 143] (H-H[Aib]QGTFTSDVSK[αMeF]LDSK([AEEA-AEEA-γGlu-C18 diacid])RARDFVQWLLE[Aib]G-OH; N-terminus assumed), the EC50 (commonly the concentration at which the effect is half-maximal) turned out to be 19.1 pM in assay [1] (setting [3]) and 32.6 pM in assay [2] (setting [4]). The “% Relative Potency Ratio” value in assay [1] (Table 6) is 3.4.
Turning to `CC[C@H](C)[C@H](NC(=O)C(C)(C)NC(=O)[C@H](CCCCNC(=O)COCCOCCNC(=O)COCCOCCNC(=O)CC[C@H](NC(=O)CCCCCCCCCCCCCCCCC(=O)O)C(=O)O)NC(=O)[C@@H](NC(=O)[C@](C)(Cc1ccccc1)NC(=O)[C@H](CC(=O)O)NC(=O)[C@H](CCC(N)=O)NC(=O)[C@H](C)NC(=O)[C@H](C)NC(=O)[C@H](CCCNC(=N)N)NC(=O)[C@H](CO)NC(=O)[C@H](CC(=O)O)NC(=O)[C@H](CC(C)C)NC(=O)C(C)(C)NC(=O)[C@H](CCCCN)NC(=O)[C@H](CO)NC(=O)[C@@H](NC(=O)[C@H](CC(=O)O)NC(=O)[C@H](CO)NC(=O)[C@@H](NC(=O)[C@](C)(Cc1ccccc1)NC(=O)[C@H](CO)NC(=O)CNC(=O)[C@H](CCC(N)=O)NC(=O)[C@H](CO)NC(=O)[C@@H](N)Cc1c[nH]cn1)[C@@H](C)O)C(C)C)C(C)C)C(=O)N[C@@H](C)C(=O)N[C@@H](CC(N)=O)C(N)=O` [Peptide 344] (H-HSQGS[αMeF]TSDVSK[Aib]LDSRAAQD[αMeF]VK([AEEA-AEEA-γGlu-C18 diacid])[Aib]IAN-NH2; N-terminus assumed), the 50% effective concentration (EC50) is 135 pM in assay [1] (cAMP, CHO cells, 0.1% BSA, geometric mean, read-out: hGLP-1R EC50) and over 26900 pM in assay [2] (cAMP, CHO cells, 0.1% BSA, read-out: hGluc-R EC50).
Turning to `CC(C)C[C@H](NC(=O)[C@H](Cc1c[nH]c2ccccc12)NC(=O)[C@H](CCCNC(=N)N)NC(=O)[C@@H](NC(=O)[C@H](Cc1ccccc1)NC(=O)[C@H](CC(=O)O)NC(=O)[C@H](CCCNC(=N)N)NC(=O)[C@H](C)NC(=O)[C@H](CCCNC(=N)N)NC(=O)[C@H](CCCCNC(=O)COCCOCCNC(=O)COCCOCCNC(=O)CC[C@H](NC(=O)CCCCCCCCCCCCCCCCC(=O)O)C(=O)O)NC(=O)[C@H](CCCCN)NC(=O)[C@H](CC(=O)O)NC(=O)[C@H](CC(C)C)NC(=O)[C@](C)(Cc1ccccc1)NC(=O)[C@H](CCCCN)NC(=O)[C@H](CO)NC(=O)[C@@H](NC(=O)[C@H](CC(=O)O)NC(=O)[C@H](CO)NC(=O)[C@@H](NC(=O)[C@H](Cc1ccccc1)NC(=O)[C@@H](NC(=O)CNC(=O)[C@H](CCC(N)=O)NC(=O)C(C)(C)NC(=O)[C@@H](N)Cc1c[nH]cn1)[C@@H](C)O)[C@@H](C)O)C(C)C)C(C)C)C(=O)N[C@@H](CC(C)C)C(=O)NC(C)(C)C(=O)N[C@@H](CCC(=O)O)C(=O)O` [Peptide 414] (H-H[Aib]QGTFTSDVSK[αMeF]LDKK([AEEA-AEEA-γGlu-C18 diacid])RARDFVRWLL[Aib]E-OH; N-terminus assumed), the EC50 in assay [1] (setting [3]) worked out at 32.3 pM; in assay [2] (setting [4]), 26.9 pM. Moreover, the “% Relative Potency Ratio” value in assay [1] (Table 6) is recorded as 1.6.
For `CC[C@H](C)[C@H](NC(=O)C(C)(C)NC(=O)[C@H](CCC(N)=O)NC(=O)[C@@H](NC(=O)[C@](C)(Cc1ccccc1)NC(=O)[C@H](CC(=O)O)NC(=O)[C@H](CCCCNC(=O)COCCOCCNC(=O)COCCOCCNC(=O)CC[C@H](NC(=O)CCCCCCCCCCCCCCCCC(=O)O)C(=O)O)NC(=O)[C@H](C)NC(=O)[C@H](C)NC(=O)[C@H](CCCNC(=N)N)NC(=O)[C@H](CO)NC(=O)[C@H](CC(=O)O)NC(=O)[C@H](CC(C)C)NC(=O)[C@](C)(Cc1ccccc1)NC(=O)[C@H](CCCCN)NC(=O)[C@H](CO)NC(=O)[C@@H](NC(=O)[C@H](CC(=O)O)NC(=O)[C@H](CO)NC(=O)[C@@H](NC(=O)[C@](C)(Cc1ccccc1)NC(=O)[C@H](CO)NC(=O)CNC(=O)[C@H](Cc1c[nH]cn1)NC(=O)C(C)(C)NC(=O)[C@@H](N)Cc1c[nH]cn1)[C@@H](C)O)C(C)C)C(C)C)C(=O)N[C@@H](C)C(=O)N[C@@H](CC(N)=O)C(=O)N[C@H](C(=O)NCC(=O)NCC(N)=O)[C@@H](C)O` [Peptide 225] (H-H[Aib]HGS[αMeF]TSDVSK[αMeF]LDSRAAK([AEEA-AEEA-γGlu-C18 diacid])D[αMeF]VQ[Aib]IANTGG-NH2), the half-maximal effective concentration (EC50) came out at 34.9 pM in assay [1] (Table 7, peptides modified at position 20, cAMP in CHO hGLP-1R cells, geometric mean, read-out: hGLP-1R EC50) and 145 pM in assay [2] (Table 7, peptides modified at position 20, cAMP in CHO hGCGR cells, read-out: hGluc-R EC50). In addition, the “% Relative Potency Ratio” value in assay [1] (Table 7) was 8.2.
As for `CCCCCCCCCCCCCCCCC(=O)N[C@@H](CCC(=O)N[C@@H](CCC(=O)NCCOCCOCCC(=O)NCCOCCOCCC(=O)NCCCC[C@H](NC(=O)[C@H](CO)NC(=O)[C@H](CC(=O)O)NC(=O)[C@H](CC(C)C)NC(=O)[C@](C)(Cc1ccccc1)NC(=O)[C@H](CCCCN)NC(=O)[C@H](CO)NC(=O)[C@@H](NC(=O)[C@H](CC(=O)O)NC(=O)[C@H](CO)NC(=O)[C@@H](NC(=O)[C@](C)(Cc1ccccc1)NC(=O)[C@H](CO)NC(=O)CNC(=O)[C@H](CCC(N)=O)NC(=O)[C@H](CO)NC(=O)[C@@H](N)Cc1c[nH]cn1)[C@@H](C)O)C(C)C)C(=O)N[C@@H](C)C(=O)N[C@@H](C)C(=O)N[C@@H](CCC(N)=O)C(=O)N[C@@H](CC(=O)O)C(=O)N[C@@](C)(Cc1ccccc1)C(=O)N[C@H](C(=O)N[C@@H](CCC(N)=O)C(=O)NC(C)(C)C(=O)N[C@H](C(=O)N[C@@H](C)C(=O)N[C@@H](CC(N)=O)C(N)=O)[C@@H](C)CC)C(C)C)C(=O)O)C(=O)O` [Peptide 88] (H-HSQGS[αMeF]TSDVSK[αMeF]LDSK([PEG2-PEG2-γGlu-γGlu-Heptadecanoyl])AAQD[αMeF]VQ[Aib]IAN-NH2; N-terminus assumed), the EC50 stood at 1.04 pM in assay [1] (setting [3]) and 6.47 pM in assay [2] (setting [4]). Moreover, the “% Relative Potency Ratio” value in assay [1] (Table 6) is listed as 12.3.
For `CC(C)C[C@H](NC(=O)[C@H](Cc1c[nH]c2ccccc12)NC(=O)[C@H](CCCNC(=N)N)NC(=O)[C@@H](NC(=O)[C@H](Cc1ccccc1)NC(=O)[C@H](CC(=O)O)NC(=O)[C@H](CCC(N)=O)NC(=O)[C@H](C)NC(=O)[C@H](CCCNC(=N)N)NC(=O)[C@H](CCCCNC(=O)COCCOCCNC(=O)COCCOCCNC(=O)CC[C@H](NC(=O)CCCCCCCCCCCCCCCCC(=O)O)C(=O)O)NC(=O)[C@H](CCCCN)NC(=O)[C@H](CC(=O)O)NC(=O)[C@H](CC(C)C)NC(=O)[C@](C)(Cc1ccccc1)NC(=O)[C@H](CCCCN)NC(=O)[C@H](CO)NC(=O)[C@@H](NC(=O)[C@H](CC(=O)O)NC(=O)[C@H](CO)NC(=O)[C@@H](NC(=O)[C@H](Cc1ccccc1)NC(=O)[C@@H](NC(=O)CNC(=O)[C@H](CCC(N)=O)NC(=O)C(C)(C)NC(=O)[C@@H](N)Cc1c[nH]cn1)[C@@H](C)O)[C@@H](C)O)C(C)C)C(C)C)C(=O)N[C@@H](CC(C)C)C(=O)N[C@@H](CCC(=O)O)C(=O)NC(C)(C)C(=O)NCC(=O)O` [Peptide 182] (H-H[Aib]QGTFTSDVSK[αMeF]LDKK([AEEA-AEEA-γGlu-C18 diacid])RAQDFVRWLLE[Aib]G-OH) the same measures were 29.1 pM, 22.6 pM and 1.5.
`CC[C@H](C)[C@H](NC(=O)[C@H](Cc1c[nH]c2ccccc12)NC(=O)[C@H](CCCCNC(=O)COCCOCCNC(=O)COCCOCCNC(=O)CC[C@H](NC(=O)CCCCCCCCCCCCCCCCC(=O)O)C(=O)O)NC(=O)[C@@H](NC(=O)[C@H](Cc1ccccc1)NC(=O)[C@H](CC(=O)O)NC(=O)[C@H](CCC(N)=O)NC(=O)[C@H](C)NC(=O)[C@H](C)NC(=O)[C@H](CCC(N)=O)NC(=O)[C@H](CO)NC(=O)[C@H](CC(=O)O)NC(=O)[C@H](CC(C)C)NC(=O)[C@](C)(Cc1ccccc1)NC(=O)[C@H](CCCCN)NC(=O)[C@H](CO)NC(=O)[C@@H](NC(=O)[C@H](CC(=O)O)NC(=O)[C@H](CO)NC(=O)[C@@H](NC(=O)[C@](C)(Cc1ccccc1)NC(=O)[C@H](CO)NC(=O)CNC(=O)[C@@H](NC(=O)C(C)(C)NC(=O)[C@@H](N)Cc1c[nH]cn1)[C@@H](C)CC)[C@@H](C)O)C(C)C)C(C)C)C(=O)N[C@@H](C)C(=O)N[C@@H](CC(N)=O)C(=O)N[C@H](C(N)=O)[C@@H](C)O` [Peptide 358] (H-H[Aib]IGS[αMeF]TSDVSK[αMeF]LDSQAAQDFVK([AEEA-AEEA-γGlu-C18 diacid])WIANT-NH2; N-terminus assumed): the 50% effective concentration (EC50) in assay [1] (hGLP-1R EC50 (pM)) was determined as 74.9 pM; in assay [2] (hGluc-R EC50 (pM), cAMP, CHO cells, 0.1% BSA), 16000 pM.

For the origin of these results see patent US20250353891A1 (MEDIMMUNE LIMITED, priority 2022, published 2025).
